Reference: patent US20200062696A1, “COMPOSITIONS AND METHODS FOR INHIBITING RETICULON 4” (THE REGENTS OF THE UNIVERSITY OF CALIFORNIA, priority 2017, published 2020)

Biological target: T1, C1101 in reticulon 4 (RTN4, Uniprot ID Q9NQC3-1) (Homo sapiens, UniProt Q9NQC3)
T1 construct: endogenous in cells; host or cells: SW620 colorectal cancer cell lysate
T1 sequence (Q9NQC3 1-1192): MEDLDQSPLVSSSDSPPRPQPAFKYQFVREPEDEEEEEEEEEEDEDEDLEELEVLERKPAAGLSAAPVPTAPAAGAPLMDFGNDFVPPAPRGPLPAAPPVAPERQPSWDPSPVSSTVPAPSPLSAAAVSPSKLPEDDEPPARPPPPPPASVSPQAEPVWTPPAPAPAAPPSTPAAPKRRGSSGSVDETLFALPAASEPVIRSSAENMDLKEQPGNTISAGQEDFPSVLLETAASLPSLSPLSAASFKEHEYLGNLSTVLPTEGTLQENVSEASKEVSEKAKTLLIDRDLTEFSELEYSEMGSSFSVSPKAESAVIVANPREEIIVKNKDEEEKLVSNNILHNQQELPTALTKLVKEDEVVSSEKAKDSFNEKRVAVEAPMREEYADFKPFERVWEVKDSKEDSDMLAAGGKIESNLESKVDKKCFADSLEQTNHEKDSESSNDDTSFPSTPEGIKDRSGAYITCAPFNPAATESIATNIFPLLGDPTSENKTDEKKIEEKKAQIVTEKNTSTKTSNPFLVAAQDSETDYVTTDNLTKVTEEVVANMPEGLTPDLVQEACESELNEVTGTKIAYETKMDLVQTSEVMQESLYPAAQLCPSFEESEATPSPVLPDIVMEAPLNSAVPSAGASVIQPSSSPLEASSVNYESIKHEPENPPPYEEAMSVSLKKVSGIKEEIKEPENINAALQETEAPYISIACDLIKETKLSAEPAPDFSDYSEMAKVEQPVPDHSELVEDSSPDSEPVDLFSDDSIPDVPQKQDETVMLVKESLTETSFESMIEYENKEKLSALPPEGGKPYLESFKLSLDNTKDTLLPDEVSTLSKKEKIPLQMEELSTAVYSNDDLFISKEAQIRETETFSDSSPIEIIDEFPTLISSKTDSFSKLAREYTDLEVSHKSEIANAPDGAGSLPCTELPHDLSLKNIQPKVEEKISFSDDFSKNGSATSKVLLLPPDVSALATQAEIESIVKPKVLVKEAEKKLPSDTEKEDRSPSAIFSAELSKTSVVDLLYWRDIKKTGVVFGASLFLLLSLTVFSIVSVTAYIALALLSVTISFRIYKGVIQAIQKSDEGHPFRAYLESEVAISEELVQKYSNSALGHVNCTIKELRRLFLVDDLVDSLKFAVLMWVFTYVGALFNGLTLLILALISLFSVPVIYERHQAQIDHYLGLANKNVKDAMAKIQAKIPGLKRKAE
Experiment: Competitive isoTOP-ABPP against IAyne labeling in SW620 proteomes: RTN4 C1101
Type: binding
Excerpt: We next performed isoTOP-ABPP studies to identify the direct targets of these lead compounds. We competed either vehicle or DKM 3-30 against labeling of SW620 proteomes with a broad cysteine-reactive probe, iodoacetamide-alkyne (IAyne), followed by appending probe-labeled proteins with a biotin-azide tag bearing a TEV protease recognition site and an isotopically light (for vehicle-treated) or heavy (for fragment-treated) tags via copper catalyzed azide-alkyne cycloaddition (CuAAC)^6,9. We then combined control and treated proteomes in a 1:1 ratio, enriched probe-labeled proteins with avidin, and digested proteomes with trypsin. Avidin-enriched probe-modified tryptic peptides were released by TEV protease digestion for subsequent quantitative proteomic analysis. Through these studies, we identified the top hit for DKM 3-30 as C1101 in reticulon 4 (RTN4, Uniprot ID Q9NQC3-1) with a light to heavy ratio of 3.0 (FIG. 2A; Table 2).
IsoTOP-ABPP Analysis. IsoTOP-ABPP analyses were performed as previously described^5-7. For competitive IsoTOP-ABPP, SW620 cell lysates were pre-incubated with DMSO vehicle or DKM 3-30 (50 μM) for 30 min at 37° C. in phosphate-buffered saline (PBS), and then labeled with IAyne (100 μM) for 1 h at room temperature. […]

C=CC(=O)Nc1ccc(Oc2ccc(Cl)cc2)cc1 [DKM 3-30, N-(4-(4-chlorophenoxy)phenyl)acrylamide]
light to heavy ratio (DKM 3-30 50 μM, 30 min 37° C., then IAyne 100 μM, ratio >3 indicates bound sites): 3.0
Ave area ratio (light to heavy ratio), peptide YSNSALGHVNC*TIK, C1101, Q9NQC3 (SW620 cell proteomes pre-treated with DMSO (light) or ligand 50 μM (heavy) 30 min at 37° C., then IAyne 100 μM 1h, averaged over runs): 3.04
